Experimental data from patent US6565859B1, “Galenical formulations” (Novartis AG, priority 1993, dated 2003).

Experiments:
in vivo = details: male, Wistar, rat, whole blood, po, 10 mg
Procedure: (§1) Formulation A is an emulsion preconcentrate and formulation B is a microemulsion preconcentrate. 6 male Wistar rats of mean body weight of 300 g are used per form. One day before treatment, food is withdrawn from the rats but the rats are permitted free access to water. The rats are then anesthetized by intraperitoneal injection of 2×1 ml 20% urethane and a permanent catheter is inserted into the right vena jugularis to permit blood sampling. 500 ml/animal of the formulation is administered by gastric intubation 20 hours after the surgery. A total dose of 10 mg of drug per animal is administered. Blood samples of 0.7 ml are taken from the jugular catheter of each animal 15 minutes before drug administration and then 0.17, 0.5, 1, 1.5, 2, 3, 5 and 8 hours after drug administration. The samples are kept in heparinized tubes and are analysed by means of ELISA using microtitre plates coated with rapamycin specific antibodies. The animals are killed immediately after taking the last blood sample.

[1] = Pharmacokinetics in rats after gastric intubation, blood levels by ELISA with rapamycin specific antibodies; details: Example 3; rapamycin given in formulations A and B, 10 mg per rat, oral
Procedure: as §1

In the case of `CO[C@H]1C[C@@H]2CC[C@@H](C)[C@@](O)(O2)C(=O)C(=O)N2CCCC[C@H]2C(=O)O[C@H]([C@H](C)C[C@@H]2CC[C@@H](O)[C@H](OC)C2)CC(=O)[C@H](C)/C=C(\C)[C@@H](O)[C@@H](OC)C(=O)[C@H](C)C[C@H](C)/C=C/C=C/C=C/1C` [rapamycin, Rapamycin], the Cmax (in vivo) is reported as 2.67 to 3.4 µg/mL and the “absorption (result in words)” value [1] is reported as “well absorbed”.
